According to patent US20080045477A1, “Series Of New 4,6-Diamino-1,2-Dihydro-1-Aryl-1,3,5-Triazines, Substituted By An Adamantyl Moiety In The Position 2 Of Triazine-Their Corresponding Salts, Isomers,Steroisomers, Enantiomers, Free Bases And The Complexes Of All The Above With Natural Macromolecules And Their Synthetic Derivatives” (priority 2001, published 2008):

NC1=NC(C23CC4CC(CC(C4)C2)C3)N(c2ccc(Cl)cc2)C(N)=N1 (stereo not shown) [Example free base, 4,6-Diamino-1,2-dihydro-1-(4-chlorophenyl)-2-(1-tricyclo[3.3.1.1^3,7]decyl)-1,3,5-triazine]
melting point: 168 to 170 °C
